Source: patent publication US20180282323A1, “Mesoionic imidazole derivatives as insecticides” (BAYER CROPSCIENCE AKTIENGESELLSCHAFT, priority 2015, published 2018)
Where two headings read alike, the source gives them in different places.

Columns and labels:
Myzus persicae [1] = assay: Myzus persicae spray test (Chinese cabbage leaf discs); assay type: in vivo; conditions: application rate 500 g/ha, after 6 days
Method: Myzus persicae—Spray Test Solvent: 78 parts by weight of acetone • • 1.5 parts by weight of dimethylformamide Emulsifier: alkylaryl polyglycol ether
To produce a suitable active ingredient formulation, 1 part by weight of active ingredient is dissolved with the stated parts by weight of solvent and made up with water containing an emulsifier concentration of 1000 ppm until the desired concentration is attained. To produce further test concentrations, the formulation is diluted with emulsifier-containing water.
Discs of Chinese cabbage leaves (Brassica pekinensis) infested by all stages of the green peach aphid (Myzus persicae) are sprayed with an active ingredient formulation of the desired concentration.
After 6 days, the efficacy in % is determined. 100% means that all the aphids have been killed; 0% means that no aphids have been killed.

Myzus persicae [2] = assay: Myzus persicae oral test; assay type: in vivo; conditions: application rate 20 ppm, oral uptake through parafilm, after 5 days
Method: Myzus persicae—Oral Test Solvent: 100 parts by weight of acetone
To produce an appropriate active ingredient formulation, 1 part by weight of active ingredient is dissolved with the stated parts by weight of solvent and made up with water until the desired concentration is attained.
50 μl of the active ingredient formulation are transferred into microtitre plates and made up to a final volume of 200 μl with 150 μl of IPL41 insect medium (33%+15% sugar). Subsequently, the plates are sealed with parafilm, which a mixed population of green peach aphids (Myzus persicae) within a second microtitre plate is able to puncture and imbibe the solution through it.
After 5 days, the efficacy in % is determined. 100% means that all the aphids have been killed; 0% means that no aphids have been killed.

[3] = log P by HPLC on reversed-phase column (EEC directive 79/831 Annex V.A8); assay type: physicochemical; conditions: for log p: HPLC on reversed-phase column (footnote a); for log p a): HPLC on reversed-phase column
Summary of the method: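 Determined per EEC directive 79/831 Annex V.A8 by HPLC on a reversed-phase C18 column at 43° C.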

| Compound | log p a) [3] | efficacy (Myzus persicae [2]) | log p [3] | further results |
| --- | --- | --- | --- | --- |
| C[S+]([O-])CC(=O)c1c([O-])n(Cc2ccc(Cl)nc2)c2cccc[n+]12 (stereo not shown) [Example I-1-022] | – | 100% | 0.91 | efficacy (Myzus persicae [1]): 100% |
| COCC(=O)c1c([O-])n(C(C)c2ccc(Cl)nc2)c2cccc[n+]12 (stereo not shown) [Example I-1-178] | – | 100% | 1.35 | efficacy (Myzus persicae [1]): 90% |
| CSCC(=O)c1c([O-])n(Cc2ccc(Cl)nc2)c2cccc[n+]12 [Example I-1-005] | – | 100% | 1.62 | efficacy (Myzus persicae [1]): 90% |
| O=C(Nc1ccccc1C(F)(F)F)c1c([O-])n(Cc2cnc(Cl)s2)c2cccc[n+]12 [Example I-1-311] | 3.22 | 100% | – | efficacy (Myzus persicae [1]): 100% |
| COCC(=O)c1c([O-])n(Cc2cncnc2)c2cccc[n+]12 [Example I-1-023] | – | 100% | 0.4 | efficacy (Myzus persicae [1]): 100% |
| CC(=O)N(C)CC(=O)c1c([O-])n(Cc2cnc(Cl)s2)c2cccc[n+]12 [Example I-1-076] | – | 100% | 1.18 | efficacy (Myzus persicae [1]): 100% |
| N#Cc1cccc(F)c1NC(=O)c1c([O-])n(Cc2cnc(Cl)s2)c2cccc[n+]12 [Example I-1-307] | 2.2 | – | – | efficacy (Myzus persicae [1]): 90% |
| Cc1cccc2n(Cc3cnc(Cl)s3)c([O-])c(C(=O)CCl)[n+]12 [Example I-1-080] | – | – | 1.81 | efficacy (Myzus persicae [1]): 100% |
| O=C(COCc1ccc(F)cc1)c1c([O-])n(Cc2cnc(Cl)s2)c2cccc[n+]12 [Example I-1-055] | – | 100% | 2.41 | – |
| Cc1ncc(Cn2c([O-])c(C(=O)NC3CC3)[n+]3cccc(C)c23)s1 [Example I-1-223] | 1.45 | 100% | – | – |
| O=C(NC1CC1)c1c([O-])n(Cc2ccc(Cl)nc2)c2cccc[n+]12 [Example I-1-133] | – | 90% | 1.85 | – |
| O=C(CCl)c1c([O-])n(Cc2ccc(Cl)nc2)c2c(F)cc(F)c[n+]12 [Example I-1-110] | – | 100% | 1.96 | – |
| COC(=O)c1c([O-])n(Cc2ccc(F)nc2)c2c(C)ccc[n+]12 [Example I-1-214] | 1.21 | 100% | – | – |
| O=C(Cn1cccn1)c1c([O-])n(Cc2cncnc2)c2cccc[n+]12 [Example I-1-066] | – | 90% | 0.56 | – |
| COC(=O)c1c([O-])n(Cc2cnc(Cl)s2)c2cccc[n+]12 [Example I-1-085, 1-[(2-Chloro-1,3-thiazol-5-yl)methyl]-3-(methoxycarbonyl)-1H-imidazo[1,2-a]pyridin-4-ium-2-olate] | – | – | – | efficacy (Myzus persicae [1]): 90%; chromatographic logP [3]: 1.23; chromatographic logP ([3]; pH 2.7): 1.23 |
| COCC(=O)c1c([O-])n(Cc2cnc(OC)s2)c2ccc(C)c[n+]12 [Example I-1-173] | – | 100% | 1.35 | – |
| CCCOCC(=O)c1c([O-])n(Cc2cnc(Cl)s2)c2ccc(Cl)c[n+]12 [Example I-1-117] | – | 100% | 2.41 | – |
| CCN(CC(=O)c1c([O-])n(Cc2ccc(Cl)nc2)c2cccc[n+]12)C(C)=O [Example I-1-071] | – | 90% | 1.4 | – |
| O=C(CCl)c1c([O-])n(Cc2ccc(F)nc2)c2cccc[n+]12 [Example I-1-207] | 1.38 | 100% | – | – |
| O=C(Cn1ccnn1)c1c([O-])n(Cc2cnc(Cl)s2)c2cccc[n+]12 [Example I-1-064] | – | 100% | 1.18 | – |
| Cc1cccc2n(Cc3ccc(Cl)nc3)c([O-])c(C(=O)CCl)[n+]12 [Example I-1-098] | – | 100% | 1.74 | – |
| Cc1cnc(Cn2c([O-])c(C(=O)Nc3c(F)cccc3F)[n+]3ccccc23)cn1 [Example I-1-269] | 1.75 | 100% | – | – |

| Compound | log p a) [3] | efficacy (Myzus persicae [2]) | log p [3] | further results |
| --- | --- | --- | --- | --- |
| Cc1ccc[n+]2c(C(=O)Nc3ccccc3)c([O-])n(Cc3cnc(Cl)s3)c12 [Example I-1-211] | 3.1 | 90% | – | – |
| COCC(=O)c1c([O-])n(Cc2cncc(Cl)c2)c2cccc[n+]12 [Example I-1-109] | – | 100% | 1.15 | – |
| COCC(=O)c1c([O-])n(Cc2ccc(Cl)nc2)c2c(Cl)ccc[n+]12 [Example I-1-164] | – | 90% | 1.59 | – |
| CC(c1ccc(Cl)nc1)n1c([O-])c(C(=O)NCC2CC2)[n+]2ccccc12 (stereo not shown) [Example I-1-250] | 2.12 | 100% | – | – |
| COc1ccccc1NC(=O)c1c([O-])n(Cc2ccc(Cl)nc2)c2cccc[n+]12 [Example I-1-326] | 2.55 | 100% | – | – |
| Cc1ccc[n+]2c(C(=O)CCl)c([O-])n(Cc3ccc(Cl)nc3)c12 [Example I-1-159] | – | 100% | 1.78 | – |
| Cc1ccc[n+]2c(C(=O)Nc3ncccn3)c([O-])n(Cc3ccc(Cl)nc3)c12 [Example I-1-265] | 1.51 | 90% | – | – |
| Cc1ccc[n+]2c(C(=O)COC3CCCC3)c([O-])n(Cc3cnc(Cl)s3)c12 [Example I-1-302] | 2.45 | 100% | – | – |
| COCC(=O)c1c([O-])n(Cc2cnc(OC)s2)c2cc(Cl)cc[n+]12 [Example I-1-124] | – | 100% | 1.51 | – |
| O=C(CSc1ccccc1)c1c([O-])n(Cc2cnc(Cl)s2)c2cccc[n+]12 [Example I-1-025] | – | 100% | 2.67 | – |
| O=C(C[S+]([O-])Cc1ccccc1)c1c([O-])n(Cc2cnc(Cl)s2)c2cccc[n+]12 (stereo not shown) [Example I-1-035] | – | 100% | 1.72 | – |
| O=C(CCl)c1c([O-])n(Cc2ccc(Cl)nc2)c2scc[n+]12 [Example I-5-001, 5-(Chloroacetyl)-7-[(6-chloropyridin-3-yl)methyl]-7H-imidazo[2,1-b][1,3]thiazol-4-ium-6-olate] | – | – | – | pest or weed control at 20 ppm (Myzus persicae [2]; Myzus persicae, 120 h, read-out: efficacy): 100%; chromatographic logP [3]: 1.33; chromatographic logP ([3]; pH 2.7): 1.33 |
| COCC(=O)c1c([O-])n(Cc2ccc(Cl)nc2)c2ccc(C)c[n+]12 [Example I-1-167] | – | 100% | 1.48 | – |
| O=C(COc1ccccc1Cl)c1c([O-])n(Cc2cnc(Cl)s2)c2cccc[n+]12 [Example I-1-078] | – | 90% | 2.77 | – |
| CC(C)(C)NC(=O)c1c([O-])n(Cc2cnc(Cl)s2)c2cccc[n+]12 [Example I-1-151] | – | 100% | 2.39 | – |
| O=C(CCl)c1c([O-])n(Cc2cnc(Cl)s2)c2ccc(Cl)c[n+]12 [Example I-1-108] | – | 100% | 2.2 | – |
| Cc1ccc[n+]2c(C(=O)COC3CCCCC3)c([O-])n(Cc3cnc(Cl)s3)c12 [Example I-1-294] | 2.77 | 90% | – | – |
| C[S+]([O-])CC(=O)c1c([O-])n(Cc2cnc(Cl)s2)c2cccc[n+]12 (stereo not shown) [Example I-1-039] | – | 100% | 1.08 | – |
| CSCC(=O)c1c([O-])n(Cc2cncnc2)c2cccc[n+]12 [Example I-1-077] | – | 100% | 0.79 | – |
| O=C(CCl)c1c([O-])n(Cc2cnc(Cl)c(Cl)c2)c2cccc[n+]12 [Example I-1-168] | – | 100% | 2.11 | – |
| Cc1ccc[n+]2c(C(=O)NC(C)(C)C)c([O-])n(Cc3cnc(Cl)s3)c12 [Example I-1-213] | 2.69 | 100% | – | – |
| Cc1ccc2n(Cc3ccc(Cl)nc3)c([O-])c(C(=O)CCl)[n+]2c1 [Example I-1-091] | – | 100% | 1.87 | – |

Second part, led by results:

| log p a) [3] | Compound | efficacy (Myzus persicae [2]) | log p [3] | further results |
| --- | --- | --- | --- | --- |
| 2.8 | Cc1cccc(Cl)c1NC(=O)c1c([O-])n(Cc2cnc(Cl)s2)c2cccc[n+]12 [Example I-1-304] | 100% | – | efficacy (Myzus persicae [1]): 100% |
| 1.81 | CCCNC(=O)c1c([O-])n(Cc2cnc(Cl)cn2)c2cccc[n+]12 [Example I-1-279] | 100% | – | efficacy (Myzus persicae [1]): 90% |
| 1.63 | O=C(Nc1ncccc1Cl)c1c([O-])n(Cc2cnc(Cl)s2)c2cccc[n+]12 [Example I-1-301] | 100% | – | efficacy (Myzus persicae [1]): 100% |
| 1.51 | CCNC(=O)c1c([O-])n(Cc2cnc(Cl)cn2)c2cccc[n+]12 [Example I-1-278] | 100% | – | – |
| 3.23 | O=C(Nc1cc(F)ccc1F)c1c([O-])n(Cc2cnc(Cl)s2)c2cccc[n+]12 [Example I-1-306] | 100% | – | – |
| 2.05 | Cc1cnc(Cn2c([O-])c(C(=O)Nc3ccccc3)[n+]3ccccc23)cn1 [Example I-1-218] | 100% | – | – |
| 2.62 | COc1ccc(NC(=O)c2c([O-])n(Cc3cnc(Cl)s3)c3cccc[n+]23)cc1 [Example I-1-236] | 100% | – | – |
| 1.3 | C#Cc1cccnc1NC(=O)c1c([O-])n(Cc2cnc(Cl)s2)c2cccc[n+]12 [Example I-1-303] | – | – | efficacy (Myzus persicae [1]): 90% |
